Data as given in PMC3446843 (Toxicological Sciences, 2012).

The compounds below were run on isolated mouse liver mitochondria (assay: Loss of mitochondrial transmembrane potential). Settings: 20% of maximal loss of ΔΨm (50µM mClCCP = 100%), 30-min incubation.
Assay type: biochemical

Q: CCCCc1oc2ccccc2c1C(=O)c1cc(I)c(OCCN(CC)CC)c(I)c1 [Amiodarone] was tested. Which “ΔΨm loss EC20” value did it give?
A: The value was 2.6 µM.

Q: How did the “ΔΨm loss EC20” value turn out when CC1(C)S[C@@H]2[C@H](NC(=O)[C@H](N)c3ccc(O)cc3)C(=O)N2[C@H]1C(=O)O [Amoxicillin] was run?
A: Its value is over 400 µM.

Q: How did the “ΔΨm loss EC20” value turn out when CC1(C)S[C@@H]2[C@H](NC(=O)[C@H](N)c3ccccc3)C(=O)N2[C@H]1C(=O)O [Ampicillin] was run?
A: The value was over 400 µM.

Q: With CC(C)c1c(C(=O)Nc2ccccc2)c(-c2ccccc2)c(-c2ccc(F)cc2)n1CC[C@@H](O)C[C@@H](O)CC(=O)O [Atorvastatin] as the compound, how does the “ΔΨm loss EC20” value read?
A: The value was 4.3 µM.

Q: CS(=O)(=O)OCCCCOS(C)(=O)=O [Busulfan] was tested. Which “ΔΨm loss EC20” value did it give?
A: Its value is 483.1 µM.

Q: O=C(/C=C/c1ccc(O)c(O)c1)c1ccc(O)cc1O [Butein] was tested. Which “ΔΨm loss EC20” value did it give?
A: Its value is over 200 µM.

Q: O=C(O)c1cn(C2CC2)c2cc(N3CCNCC3)c(F)cc2c1=O [Ciprofloxacin] was tested. Which “ΔΨm loss EC20” value did it give?
A: The value was over 400 µM.

Q: For Clc1ccccc1C(c1ccccc1)(c1ccccc1)n1ccnc1 [Clotrimazole], which “ΔΨm loss EC20” value is on record?
A: Its value is 23.9 µM.

Q: How did the “ΔΨm loss EC20” value turn out when O=c1ccc2ccccc2o1 [Coumarin] was run?
A: The value was 0.9 µM.

Q: Which “ΔΨm loss EC20” value does the source give for Cc1nc(Nc2ncc(C(=O)Nc3c(C)cccc3Cl)s2)cc(N2CCN(CCO)CC2)n1 [Dasatinib] here?
A: The value was 20.8 µM.

Q: CC1=NS(=O)(=O)c2cc(Cl)ccc2N1 [Diazoxide] was tested. Which “ΔΨm loss EC20” value did it give?
A: The value was over 200 µM.

Q: Which “ΔΨm loss EC20” value does the source give for O=C(O)c1cc(-c2ccc(F)cc2F)ccc1O [Diflunisal] here?
A: The value was 17.9 µM.

Q: With CCN(CC)C(=S)SSC(=S)N(CC)CC [Disulfiram] as the compound, how does the “ΔΨm loss EC20” value read?
A: The value was 12.6 µM.

Q: For COc1cccc2c1C(=O)c1c(O)c3c(c(O)c1C2=O)C[C@@](O)(C(=O)CO)C[C@@H]3O[C@H]1C[C@H](N)[C@H](O)[C@H](C)O1 [Doxorubicin], which “ΔΨm loss EC20” value is on record?
A: The value was 8.9 µM.

Q: Which “ΔΨm loss EC20” value does the source give for Clc1ccc(COC(Cn2ccnc2)c2ccc(Cl)cc2Cl)cc1 (stereo not drawn) [Econazole] here?
A: The value was 13.3 µM.

Q: Which “ΔΨm loss EC20” value does the source give for O=C(O)c1ccccc1Nc1cccc(C(F)(F)F)c1 [Flufenamic acid] here?
A: Its value is 42.5 µM.

Q: For CC(C)C(=O)Nc1ccc([N+](=O)[O-])c(C(F)(F)F)c1 [Flutamide], which “ΔΨm loss EC20” value is on record?
A: Its value is 27.0 µM.

Q: For COc1cc2ncnc(Nc3ccc(F)c(Cl)c3)c2cc1OCCCN1CCOCC1 [Gefitinib], which “ΔΨm loss EC20” value is on record?
A: The value was 9.6 µM.

Q: With O=c1c(-c2ccc(O)cc2)coc2cc(O)cc(O)c12 [Genistein] as the compound, how does the “ΔΨm loss EC20” value read?
A: The value was 150.6 µM.

Q: CNC(C)C1CCC(N)C(OC2C(N)CC(N)C(OC3OCC(C)(O)C(NC)C3O)C2O)O1 (stereo not drawn) [Gentamicin] was tested. Which “ΔΨm loss EC20” value did it give?
A: The value was 49.0 µM.

Q: How did the “ΔΨm loss EC20” value turn out when CCC1=C(C)CN(C(=O)NCCc2ccc(S(=O)(=O)NC(=O)N[C@H]3CC[C@H](C)CC3)cc2)C1=O [Glimepiride] was run?
A: The value was 94.6 µM.

Q: Which “ΔΨm loss EC20” value does the source give for Cc1cc2c(C(C)C)c(O)c(O)c(C=O)c2c(O)c1-c1c(C)cc2c(C(C)C)c(O)c(O)c(C=O)c2c1O [Gossypol] here?
A: The value was 1.0 µM.

Q: With CC(C)=CCC[C@]1(C)[C@@H](CC=C(C)C)C[C@@]2(CC=C(C)C)C(=O)[C@]1(C(=O)C(C)C)C(=O)C(CC=C(C)C)=C2O [Hyperforin] as the compound, how does the “ΔΨm loss EC20” value read?
A: The value was 0.1 µM.

Q: With Cc1ccc(NC(=O)c2ccc(CN3CCN(C)CC3)cc2)cc1Nc1nccc(-c2cccnc2)n1 [Imatinib] as the compound, how does the “ΔΨm loss EC20” value read?
A: Its value is 25.7 µM.

Q: CN(C)CCCN1c2ccccc2CCc2ccccc21 [Imipramine] was tested. Which “ΔΨm loss EC20” value did it give?
A: The value was 74.8 µM.

Q: COc1ccc2c(c1)c(CC(=O)O)c(C)n2C(=O)c1ccc(Cl)cc1 [Indomethacin] was tested. Which “ΔΨm loss EC20” value did it give?
A: Its value is 443.2 µM.

Q: How did the “ΔΨm loss EC20” value turn out when NNC(=O)c1ccncc1 [Isoniazide] was run?
A: Its value is 504.6 µM.

Q: Which “ΔΨm loss EC20” value does the source give for O=C(O)c1nn(Cc2ccc(Cl)cc2Cl)c2ccccc12 [Lonidamine] here?
A: The value was 138.1 µM.

Q: With Cc1cccc(Nc2ccccc2C(=O)O)c1C [Mefenamic acid] as the compound, how does the “ΔΨm loss EC20” value read?
A: The value was 49.7 µM.

Q: Which “ΔΨm loss EC20” value does the source give for Sc1ncnc2nc[nH]c12 [Mercaptopurine] here?
A: The value was 406.9 µM.

Q: How did the “ΔΨm loss EC20” value turn out when CO[C@@]12[C@H](COC(N)=O)C3=C(C(=O)C(C)=C(N)C3=O)N1C[C@@H]1N[C@@H]12 [Mitomycin C] was run?
A: Its value is over 200 µM.

Q: O=C1c2c(O)ccc(O)c2C(=O)c2c(NCCNCCO)ccc(NCCNCCO)c21 [Mitoxantrone] was tested. Which “ΔΨm loss EC20” value did it give?
A: Its value is 7.00 µM.

Q: For Cc1c(O)cccc1C(=O)N[C@@H](CSc1ccccc1)[C@H](O)CN1C[C@H]2CCCC[C@H]2C[C@H]1C(=O)NC(C)(C)C [Nelfinavir], which “ΔΨm loss EC20” value is on record?
A: The value was 6.3 µM.

Q: CO[C@]12C[C@@H](COC(=O)c3cncc(Br)c3)CN(C)[C@@H]1Cc1cn(C)c3cccc2c13 [Nicergoline] was tested. Which “ΔΨm loss EC20” value did it give?
A: Its value is 82.6 µM.

Q: With Cc1cn(-c2cc(NC(=O)c3ccc(C)c(Nc4nccc(-c5cccnc5)n4)c3)cc(C(F)(F)F)c2)cn1 [Nilotinib] as the compound, how does the “ΔΨm loss EC20” value read?
A: The value was 11.5 µM.

Q: With CS(=O)(=O)Nc1ccc([N+](=O)[O-])cc1Oc1ccccc1 [Nimesulide] as the compound, how does the “ΔΨm loss EC20” value read?
A: Its value is 10.1 µM.

Q: CCCCC1C(=O)N(c2ccccc2)N(c2ccccc2)C1=O [Phenylbutazone] was tested. Which “ΔΨm loss EC20” value did it give?
A: Its value is 140.2 µM.

Q: For CC[C@H](C)C(=O)O[C@H]1C[C@H](O)C=C2C=C[C@H](C)[C@H](CC[C@@H](O)C[C@@H](O)CC(=O)O)[C@H]21 [Pravastatin], which “ΔΨm loss EC20” value is on record?
A: Its value is over 200 µM.

Q: How did the “ΔΨm loss EC20” value turn out when CCCc1cc(=O)[nH]c(=S)[nH]1 [Propylthiouracil] was run?
A: Its value is 391.5 µM.

Q: With Oc1ccc(/C=C/c2cc(O)cc(O)c2)cc1 [Resveratrol] as the compound, how does the “ΔΨm loss EC20” value read?
A: The value was 395.4 µM.

Q: CO[C@H]1/C=C/O[C@@]2(C)Oc3c(C)c(O)c4c(O)c(c(/C=N/N5CCN(C)CC5)c(O)c4c3C2=O)NC(=O)/C(C)=C\C=C\[C@H](C)[C@H](O)[C@@H](C)[C@@H](O)[C@@H](C)[C@H](OC(C)=O)[C@@H]1C [Rifampicin] was tested. Which “ΔΨm loss EC20” value did it give?
A: The value was over 800 µM.

Q: How did the “ΔΨm loss EC20” value turn out when CC(C)c1nc(CN(C)C(=O)N[C@H](C(=O)N[C@@H](Cc2ccccc2)C[C@H](O)[C@H](Cc2ccccc2)NC(=O)OCc2cncs2)C(C)C)cs1 [Ritonavir] was run?
A: Its value is 24.8 µM.

Q: Which “ΔΨm loss EC20” value does the source give for CC[C@H]1OC(=O)[C@H](C)[C@@H](O[C@H]2C[C@@](C)(OC)[C@@H](O)[C@H](C)O2)[C@H](C)[C@@H](O[C@@H]2O[C@H](C)C[C@H](N(C)C)[C@H]2O)[C@](C)(O)C[C@@H](C)/C(=N\OCOCCOC)[C@H](C)[C@@H](O)[C@]1(C)O [Roxithromycin] here?
A: The value was 244.8 µM.

Q: Which “ΔΨm loss EC20” value does the source give for CNC(=O)c1cc(Oc2ccc(NC(=O)Nc3ccc(Cl)c(C(F)(F)F)c3)cc2)ccn1 [Sorafenib] here?
A: The value was 0.5 µM.

Q: With [H]/N=C(/N)N[C@H]1[C@H](O)[C@@H](O)[C@H](O[C@@H]2O[C@@H](C)[C@](O)(C=O)[C@H]2O[C@@H]2O[C@@H](CO)[C@H](O)[C@@H](O)[C@@H]2NC)[C@@H](N/C(N)=N\[H])[C@@H]1O [Streptomycin] as the compound, how does the “ΔΨm loss EC20” value read?
A: The value was 78.8 µM.

Q: With CCN(CC)CCNC(=O)c1c(C)[nH]c(/C=C2\C(=O)Nc3ccc(F)cc32)c1C [Sunitinib] as the compound, how does the “ΔΨm loss EC20” value read?
A: Its value is 23.2 µM.

Q: With CC/C(=C(\c1ccccc1)c1ccc(OCCN(C)C)cc1)c1ccccc1 [Tamoxifen] as the compound, how does the “ΔΨm loss EC20” value read?
A: The value was 2.9 µM.

Q: CN(C/C=C/C#CC(C)(C)C)Cc1cccc2ccccc12 [Terbinafine] was tested. Which “ΔΨm loss EC20” value did it give?
A: The value was 12.5 µM.

Q: How did the “ΔΨm loss EC20” value turn out when Clc1ccccc1CN1CCc2sccc2C1 [Ticlopidine] was run?
A: Its value is 50.5 µM.

Q: With Cc1ccc(C(=O)c2cc(O)c(O)c([N+](=O)[O-])c2)cc1 [Tolcapone] as the compound, how does the “ΔΨm loss EC20” value read?
A: Its value is 3.9 µM.

Q: For Cc1c(Cl)cccc1Nc1ccccc1C(=O)O [Tolfenamic acid], which “ΔΨm loss EC20” value is on record?
A: Its value is 7.1 µM.

Q: For COc1cccc(C2(O)CCCCC2CN(C)C)c1 (stereo not drawn) [Tramadol], which “ΔΨm loss EC20” value is on record?
A: Its value is 263.8 µM.

Same assay, conditions: ΔΨm and respiration

Q: For Cc1c(O)cccc1C(=O)N[C@@H](CSc1ccccc1)[C@H](O)CN1C[C@H]2CCCC[C@H]2C[C@H]1C(=O)NC(C)(C)C [Nelfinavir], which “concentrations collapsing the ΔΨm and altering the mitochondrial respiration” value is on record?
A: The value was “lower than 50 μM”.

Q: Which “concentrations collapsing the ΔΨm and altering the mitochondrial respiration” value does the source give for CC(C)c1nc(CN(C)C(=O)N[C@H](C(=O)N[C@@H](Cc2ccccc2)C[C@H](O)[C@H](Cc2ccccc2)NC(=O)OCc2cncs2)C(C)C)cs1 [Ritonavir] here?
A: The value was “lower than 50 μM”.
